Data published in patent US20250195510A1, “NOVEL METHODS” (priority 2022, published 2025).

Columns and labels:
Corticosterone = assay: Serum corticosterone (ELISA) after acute restraint stress; format: in vivo, mouse; conditions: restraint stress 2 h + Luma 3 mg/kg IP; control 22.65, stressed 238.5
Experimental: Restraint Stress Protocol.
Using similar procedures as described above, serum corticosterone levels and hippocampal Cldn5 mRNA expression are measured as well (corticosterone is measured using a commercial ELISA kit).

Sprague-Dawley rats [1] = assay: Female urine sniffing test (FUST), LPS-induced anhedonia; format: in vivo, rat; conditions: LPS 1 mg/kg SC
Text: All other reagents are obtained in the highest purity available from Sigma-Aldrich (St. Louis, MO) unless otherwise noted. […] Sigma-Aldrich, ref #0127: B8) diluted in 0.9% injectable saline while control group animals receive injections of all vehicles matching the experimental conditions. […] Behavioral Evaluation. […] Reward Sniffing Test (also known also as female urine sniffing test (FUST)): In this anhedonia-based assay, rats are brought to a well-ventilated testing room under dim lighting. A sterile cotton-tipped applicator is attached to one wall in the home cage for 1 hour to habituate rats to this new object. For the 2 phases of the 5 minute test, rats are first exposed to a new cotton tip dipped in sterile water as a control that is removed at the end of the 5 minutes; 45 minutes later, another cotton tip previously dipped into fresh rat urine collected from females of the same strain is attached to the cage wall. Male behavior is video recorded and latency to first sniff of the cotton tip and total time spent sniffing the cotton-tipped applicator are determined. In a pilot study, a dose response curve is conducted with varying doses of LPS to select an optimal dose for inducing an anhedonic response in rats. […] SC). […] Control rats are administered saline instead of LPS and vehicle instead of lumateperone. Anhedonia is assessed using FUST (female urine sniffing test) and measuring latency to sniff the reward combined with time spent sniffing the reward. Latency sniffing water is used as a control. The results are shown in the table below (time in seconds) with outliers removed using the MAD Method: […]

Sprague-Dawley rats [2] = assay: Novelty Suppressed Feeding Test (NSFT); format: in vivo, rat; conditions: naïve rats, Luma 1 mg/kg IP days 1 and 3, no LPS; control 657.8
Experimental: Behavioral Evaluation. All behavioral tests are performed in the morning with adult male Sprague-Dawley rats (n=9-11 per group for the experiments with LPS, and n=13-14 per group for the naïve rats).
Novelty Suppressed Feeding Test (NSFT). This test measures consumption of a familiar food in a novel environment, relying on rodents' aversion to eating in a novel environment after a period of food deprivation (Ramaker and Dulawa, “Identifying fast-onset antidepressants using rodent models,” Mol. Psychiatry 22:656-665 (2017)). Rats are food-deprived overnight and placed in an open field (76.5×76.5×40 cm^3) with a small amount of food pellets (6 pellets total). At the time of the test, rats are exposed to the open field for the first time (novelty) and allowed to explore it for a maximum of 15 minutes under red light. The latency for the animal to approach the food pellets and take its first bite is manually scored. A home cage feeding test (HCFT) is performed afterwards to ensure latency measured in NSFT is not a matter of difference in hunger. A home cage food intake analysis evaluated the amount of food eaten (in grams) over a period of 10 minutes following the end of the entire test session.
Basal levels of anxiety are also tested using 2 commonly used tests, NSFT and novelty induced hypophagia (NIH), in the absence of LPS. […]

[3] = test system: inflammatory biomarkers in PBMCs; assay: Post-hoc analysis of inflammatory biomarkers in PBMCs, phase 3 trial, schizophrenia with co-morbid depression; format: in vivo, human; conditions: Day 28, 60 mg lumateperone tosylate once daily
Experimental: A randomized, double-blind, placebo-controlled, phase 3 clinical trial was conducted with 450 patients with schizophrenia, aged 18 to 60 years, who were experiencing an acute exacerbation of psychosis. Patients were included if they were experiencing an acute exacerbation of psychosis, defined as a total score on the Brief Psychiatric Rating Scale of […] or higher, with a score of 4 or higher on 2 or more positive symptoms, and onset of the acute episode within 4 weeks of screening. Patients were required to have a score of 4 or higher, indicating moderate to severe disease severity, on the Clinical Global Impression-Severity of Illness (CGI-S) at screening and baseline. Severity of illness was confirmed at baseline by a Positive and Negative Syndrome Scale (PANSS) total score of 70 or higher, indicating moderate to extreme symptoms of schizophrenia. A subgroup of these patients experienced co-morbid depression symptoms at baseline (defined as having a Calgary Depression Scale for Schizophrenia (CDSS) score greater than 6 at baseline). Full details of the clinical study were reported in Correll et al., JAMA Psychiatry, 77 (4): 349-358 (2020).
Patients were randomized 1:1:1 (150 patients in each arm) to receive, once daily for 28 days, cither 60 mg lumatepcrone tosylate (42 mg free base), 40 mg lumatepcrone tosylate (28 mg free base), or placebo.
Using blood samples stored from the study, a post-hoc analysis of inflammatory biomarkers in PBMCs from the patients with schizophrenia and co-morbid depression is conducted. […] Day 0 samples are available for 20 patients, while day 28 samples are available only for 18 patients. Mean baseline CDSS is 10.0, and mean baseline PANSS total score is 88.7 in the selected patients.
Samples were processed to isolate PBMC according to standard procedures using the Ficoll-Paque method. Statistical analysis was performed using the paired t-test, two-tailed. Samples were tested for C-reactive protein (CRP), serum amyloid A (SAA), soluble ICAM-1, soluble VCAM-1, IL-1β, TNF-α, IL-6, IL-10, IL-2, IL-8, IL-13, and IFN-γ. ICAM-1 and VCAM-1 are expressed by the vascular endothelium, macrophages, and lymphocytes. Upon cytokine stimulation, their concentrations greatly increase. ICAM-1 can be induced by IL-1ß and TNF. ICAM and VCAM proteins may also be involved in pathogen transit into CNS.
The results are shown in the table below (biomarker levels expressed in ng/ml; some values of N are less than the patient totals due to samples with levels of biomarker below the minimum for quantification): […]

CN1CCN2c3c(cccc31)[C@@H]1CN(CCCC(=O)c3ccc(F)cc3)CC[C@@H]12 [Lumateperone, 4-((6bR,10aS)-3-methyl-2,3,6b,9,10,10a-hexahydro-1H-pyrido[3′,4′: 4,5]pyrrolo[1,2,3-de]quinoxaline-8 (7H)-yl)-1-(4-fluorophenyl)-1-butanone]
Serum concentration Corticosterone (Corticosterone): 167.3 ng/mL
FUST Time sniffing reward (Sprague-Dawley rats [1]; Luma 1 mg/kg IP 24 h before and 24 h after LPS, control 16.99, LPS + Vehicle 11.11): 17.38 s
FUST Latency sniffing reward (Sprague-Dawley rats [1]; Luma 1 mg/kg IP 24 h before and 24 h after LPS, control 28.00, LPS + Vehicle 164.2): 68.13 s
FUST Latency sniffing water (Sprague-Dawley rats [1]; control test, Luma 1 mg/kg IP before and after LPS, control 190.56, LPS + Vehicle 274.27): 207.60 s
NSFT latency to feed (Sprague-Dawley rats [2]): 507.9 s
IL-10 level in PBMC, Median ([3]; Day 0 0.07): 0.21 ng/mL
IL-10 level in PBMC, Average ([3]; Day 0 0.09): 2.14 ng/mL
IL-2 level in PBMC, Median ([3]; Day 0 0.17): 0.25 ng/mL
IL-2 level in PBMC, Average ([3]; Day 0 0.18): 0.37 ng/mL
IL-6 level in PBMC, Median ([3]; Day 0 0.18): 0.32 ng/mL
IL-6 level in PBMC, Average ([3]; Day 0 0.20): 0.55 ng/mL
TNF-α level in PBMC, Average ([3]; Day 0 0.27): 0.83 ng/mL
TNF-α level in PBMC, Median ([3]; Day 0 0.27): 0.43 ng/mL
IFN-γ level in PBMC, Median ([3]; Day 0 1.01): 0.71 ng/mL
IFN-γ level in PBMC, Average ([3]; Day 0 1.11): 0.86 ng/mL
IL-13 level in PBMC, Median ([3]; Day 0 1.11): 1.56 ng/mL
IL-13 level in PBMC, Average ([3]; Day 0 1.31): 2.38 ng/mL
IL-1β level in PBMC, Median ([3]; Day 0 1.65): 0.74 ng/mL
IL-1β level in PBMC, Average ([3]; Day 0 1.76): 1.01 ng/mL
IL-8 level in PBMC, Median ([3]; Day 0 36.3): 44.0 ng/mL
sVCAM-1 level in PBMC, Median ([3]; Day 0 60.1): 42.0 ng/mL
CRP level in PBMC, Median ([3]; Day 0 61.3): 38.0 ng/mL
IL-8 level in PBMC, Average ([3]; Day 0 74.5): 105.3 ng/mL
CRP level in PBMC, Average ([3]; Day 0 78.8): 50.5 ng/mL
sVCAM-1 level in PBMC, Average ([3]; Day 0 78.9): 49.1 ng/mL
sICAM-1 level in PBMC, Median ([3]; Day 0 136.9): 83.6 ng/mL
sICAM-1 level in PBMC, Average ([3]; Day 0 184.8): 119.6 ng/mL
SAA level in PBMC, Median ([3]; Day 0 233.6): 147.3 ng/mL
SAA level in PBMC, Average ([3]; Day 0 286.9): 157.9 ng/mL
